Key:
[1] = molecular target: full length human FXR protein (Homo sapiens (Human), UniProt Q96RI1); test: FXR cellular assay (FXR-SRCP β-gal enzyme fragment complementation in CHO-K1 cells, chemiluminescence); type: cell-based; details: CHO-K1 cells with SRCP-EA and ProLink-labeled FXR, 0-10 micromolar compound, 37° C. for 6h, read-out: EC50 FXR-cell Luminescence/
From the text: A cell based FXR assay was used to detect protein-protein interactions between an activated (ligand-bound), full length human FXR protein and a nuclear fusion protein containing a Steroid Receptor Coactivator Peptide (SCRP) domain. In this approach, two weakly complementing fragments of the 3-gal enzyme were expressed within stably transfected Chinese Hamster Ovary (CHO-K1) cells. The complementing fragments of the 3-gal enzyme (ProLink, PK; and Enzyme Acceptor, EA) were translationally fused to the C-terminus of a full-length FXR and to the SRCP, respectively. Complementation was driven by the protein-protein interaction between SRCP-EA and a ProLink-labeled FXR. Upon FXR-SRCP binding, the two fragments of 3-gal complement, forming a functional enzyme capable of hydrolyzing a substrate molecule and generating a chemiluminescent signal.
CHO-K1 cells containing SRCP-EA and ProLink-labeled FXR were plated in 384-well microplates and incubated at 37° C. overnight. A positive control FXR agonist, GW4064 (0-10 micromolar), or test compounds (0-10 micromolar) were added to plated cells and incubated at 37° C. for 6h (final DMSO vehicle concentration was 1%). The assay signal was generated by addition of 50% (v/v) detection reagent (19:5:1, cell assay buffer: substrate reagent 1: substrate reagent 2, DiscoverX) followed by incubation for 1h at ambient room temperature. Microplates were analyzed using an Envision reader (PerkinElmer Life and Analytical Sciences, Signal=chemiluminescence).

[2] = molecular target: ligand binding domain (LBD) of recombinant human FXR (Homo sapiens (Human), UniProt Q96RI1); test: FXR cell free coactivator (SRC-1) recruitment assay, TR-FRET; details: FXR LBD (amino acids 244-476) with labeled SRC-1 domain, 25° C. for 60 minutes, activity relative to CDCA maximum; read-out: EC50 FXR- Biochemical TR-FRET/μM
Experimental: A cell free coactivator recruitment assay was developed for FXR, to measure the functional potency of novel FXR compounds. In this assay, novel FXR compounds were bound to the ligand binding domain (LBD) of recombinant human FXR. The ability of this liganded homodimeric complex to recruit the co-activator protein steroid receptor coactivator 1 (SRC-1) was measured using Time-Resolved Fluorescence Resonance Energy Transfer (TR-FRET).
The LBD of human FXR (amino acids 244-476) was cloned into an expression vector for protein expression in SF9 insect cells. Purified FXR LBD was incubated in TR-FRET coregulator buffer G (Eurofins) with test compounds (0-10 micromolar) and a labeled nuclear receptor interaction domain of SRC-1 at 25° C. for 60 minutes (final DMSO vehicle concentration was 1.2%). Assays were analyzed using an Envision TR-FRET reader (PerkinElmer Life and Analytical Sciences). Compound activity at each concentration was defined as a percentage of the maximal activity of the natural FXR ligand agonist chenodeoxycholic acid (CDCA) generating a dose response curve.

full length human FXR protein, sequence (Q96RI1 whole entry, the tested form may be a part): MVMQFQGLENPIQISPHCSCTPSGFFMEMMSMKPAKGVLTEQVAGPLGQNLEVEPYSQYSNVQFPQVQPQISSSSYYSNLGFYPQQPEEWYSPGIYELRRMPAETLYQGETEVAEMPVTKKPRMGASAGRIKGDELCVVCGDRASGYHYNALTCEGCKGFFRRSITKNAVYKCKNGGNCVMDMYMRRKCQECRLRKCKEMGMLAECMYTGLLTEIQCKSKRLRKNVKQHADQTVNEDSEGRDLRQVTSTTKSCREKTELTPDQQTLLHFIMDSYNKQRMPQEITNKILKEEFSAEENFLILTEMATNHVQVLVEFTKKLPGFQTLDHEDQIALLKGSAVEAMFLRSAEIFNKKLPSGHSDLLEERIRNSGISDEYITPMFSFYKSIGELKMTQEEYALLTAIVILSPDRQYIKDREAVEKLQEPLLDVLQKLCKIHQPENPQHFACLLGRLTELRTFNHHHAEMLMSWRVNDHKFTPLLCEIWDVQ
ligand binding domain (LBD) of recombinant human FXR, sequence (Q96RI1 254-486): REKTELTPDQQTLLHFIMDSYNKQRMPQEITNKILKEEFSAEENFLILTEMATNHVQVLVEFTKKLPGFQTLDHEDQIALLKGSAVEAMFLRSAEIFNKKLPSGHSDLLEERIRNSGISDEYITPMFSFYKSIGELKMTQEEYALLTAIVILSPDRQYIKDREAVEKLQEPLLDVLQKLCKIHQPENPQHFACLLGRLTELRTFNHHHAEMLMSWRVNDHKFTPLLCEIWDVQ
ligand binding domain (LBD) of recombinant human FXR, sequence (Q15788 whole entry partner, the tested form may be a part): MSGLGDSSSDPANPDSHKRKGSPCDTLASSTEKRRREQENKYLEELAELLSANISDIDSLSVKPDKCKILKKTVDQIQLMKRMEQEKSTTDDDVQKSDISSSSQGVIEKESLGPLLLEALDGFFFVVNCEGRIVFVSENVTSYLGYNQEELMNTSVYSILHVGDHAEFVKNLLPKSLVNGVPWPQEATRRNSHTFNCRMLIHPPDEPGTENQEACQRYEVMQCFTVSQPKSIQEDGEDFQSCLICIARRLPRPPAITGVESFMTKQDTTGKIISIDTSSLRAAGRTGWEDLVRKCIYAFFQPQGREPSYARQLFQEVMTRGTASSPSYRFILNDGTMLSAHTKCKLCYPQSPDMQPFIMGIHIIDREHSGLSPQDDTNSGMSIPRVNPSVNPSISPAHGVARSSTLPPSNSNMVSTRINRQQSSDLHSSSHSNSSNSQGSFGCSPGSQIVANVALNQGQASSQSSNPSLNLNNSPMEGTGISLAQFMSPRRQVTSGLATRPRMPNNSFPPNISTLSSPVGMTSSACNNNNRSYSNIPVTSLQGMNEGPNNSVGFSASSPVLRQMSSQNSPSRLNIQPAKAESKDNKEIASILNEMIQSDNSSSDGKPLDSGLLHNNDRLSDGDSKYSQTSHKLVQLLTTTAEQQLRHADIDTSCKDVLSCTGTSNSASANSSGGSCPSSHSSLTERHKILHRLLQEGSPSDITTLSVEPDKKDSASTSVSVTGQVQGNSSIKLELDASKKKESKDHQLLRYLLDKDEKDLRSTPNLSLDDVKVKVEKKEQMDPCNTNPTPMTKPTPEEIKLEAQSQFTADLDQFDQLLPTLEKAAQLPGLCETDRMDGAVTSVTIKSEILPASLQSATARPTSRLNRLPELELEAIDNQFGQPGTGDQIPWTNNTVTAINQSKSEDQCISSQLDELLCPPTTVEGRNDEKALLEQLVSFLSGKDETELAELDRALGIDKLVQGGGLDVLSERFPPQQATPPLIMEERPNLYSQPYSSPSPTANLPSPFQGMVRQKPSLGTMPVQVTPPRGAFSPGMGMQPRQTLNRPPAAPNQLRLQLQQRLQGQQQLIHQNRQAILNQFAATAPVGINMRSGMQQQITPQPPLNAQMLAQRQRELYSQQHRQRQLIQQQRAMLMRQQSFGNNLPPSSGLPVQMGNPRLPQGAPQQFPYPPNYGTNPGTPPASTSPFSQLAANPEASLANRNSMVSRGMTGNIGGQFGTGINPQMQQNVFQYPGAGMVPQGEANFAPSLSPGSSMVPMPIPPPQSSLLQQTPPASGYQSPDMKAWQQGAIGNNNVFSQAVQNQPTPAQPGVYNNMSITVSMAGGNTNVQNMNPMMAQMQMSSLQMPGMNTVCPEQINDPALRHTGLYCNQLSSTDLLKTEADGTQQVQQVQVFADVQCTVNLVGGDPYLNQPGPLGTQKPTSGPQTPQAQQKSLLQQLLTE

SMILES	EC50 [1] [nM]	EC50 [2] [µM]
O=c1[nH]c(-c2ccc(N3CCC(OCc4c(-c5c(Cl)cccc5Cl)noc4C4CC4)CC3)cn2)no1 [Example 9, 3-(5-(4-((5-cyclopropyl-3-(2,6-dichlorophenyl)isoxazol-4-yl)methoxy)piperidin-1-yl)pyridin-2-yl)-1,2,4-oxadiazol-5(4H)-one]	1590	0.175
O=c1[nH]nc(-c2ccc(N3CCC(OCc4c(-c5c(Cl)cccc5Cl)noc4C4CC4)CC3)cc2F)o1 [Example 48, 5-(4-(4-((5-cyclopropyl-3-(2,6-dichlorophenyl)isoxazol-4-yl)methoxy)piperidin-1-yl)-2-fluorophenyl)-1,3,4-oxadiazol-2(3H)-one]	336	0.0416
O=c1[nH]c(-c2cc(N3CCC(OCc4c(-c5c(Cl)cccc5Cl)noc4C4CC4)CC3)no2)no1 [Example 42, 3-(3-(4-((5-cyclopropyl-3-(2,6-dichlorophenyl)isoxazol-4-yl)methoxy)piperidin-1-yl)isoxazol-5-yl)-1,2,4-oxadiazol-5(4H)-one]	10000	0.139
O=c1[nH]c(-c2ccc(N3CCC(OCc4c(-c5c(Cl)cccc5Cl)noc4C4CC4)C3)cc2)no1 (centres unmarked) [Example 15, 3-(4-(3-((5-cyclopropyl-3-(2,6-dichlorophenyl)isoxazol-4-yl)methoxy)pyrrolidin-1-yl)phenyl)-1,2,4-oxadiazol-5(4H)-one]	5510	0.892
O=c1[nH]c(-c2n[nH]c(N3CCC(OCc4c(-c5c(Cl)cccc5Cl)noc4C4CC4)CC3)n2)no1 [Example 45, 3-(5-(4-((5-cyclopropyl-3-(2,6-dichlorophenyl)isoxazol-4-yl)methoxy)piperidin-1-yl)-1H-1,2,4-triazol-3-yl)-1,2,4-oxadiazol-5(4H)-one]	10000	0.61
O=C(c1noc(=O)[nH]1)N1CCC(OCc2c(-c3c(Cl)cccc3Cl)noc2C2CC2)CC1 [Example 1, 3-(4-((5-cyclopropyl-3-(2,6-dichlorophenyl)isoxazol-4-yl)methoxy)piperidine-1-carbonyl)-1,2,4-oxadiazol-5(4H)-one]	1130	3.18
C[C@@H]1CN(c2ccc(-c3noc(=O)[nH]3)cc2)CC[C@H]1OCc1c(-c2c(Cl)cccc2Cl)noc1C1CC1 [Example 34, 3-(4-((3R,4R)-4-((5-cyclopropyl-3-(2,6-dichlorophenyl)isoxazol-4-yl)methoxy)-3-methylpiperidin-1-yl)phenyl)-1,2,4-oxadiazol-5(4H)-one]	785	0.153
COc1cccc(F)c1-c1noc(C2CC2)c1COC1CCN(c2ccc(-c3noc(=O)[nH]3)cc2)CC1 [Example 28, 3-(4-(4-((5-cyclopropyl-3-(2-fluoro-6-methoxyphenyl)isoxazol-4-yl)methoxy)piperidin-1-yl)phenyl)-1,2,4-oxadiazol-5(4H)-one]	1610	0.149
O=c1[nH]c(-c2ccc(N3CCC(OCc4c(-c5c(Cl)cccc5Cl)noc4C4CC4)CC3)nc2)no1 [Example 6, 3-(6-(4-((5-cyclopropyl-3-(2,6-dichlorophenyl)isoxazol-4-yl)methoxy)piperidin-1-yl)pyridin-3-yl)-1,2,4-oxadiazol-5(4H)-one]	372	0.0044
C[C@H]1CN(c2ccc(-c3noc(=O)[nH]3)cc2)CC[C@@H]1OCc1c(-c2c(Cl)cccc2Cl)noc1C1CC1 [Example 33, 3-(4-((3S,4S)-4-((5-cyclopropyl-3-(2,6-dichlorophenyl)isoxazol-4-yl)methoxy)-3-methylpiperidin-1-yl)phenyl)-1,2,4-oxadiazol-5(4H)-one]	702	0.142
O=c1cnn(-c2ccc(N3CCC(OCc4c(-c5c(Cl)cccc5Cl)noc4C4CC4)CC3)cc2)c(=O)[nH]1 [Example 17, 2-(4-(4-((5-cyclopropyl-3-(2,6-dichlorophenyl)isoxazol-4-yl)methoxy)piperidin-1-yl)phenyl)-1,2,4-triazine-3,5(2H,4H)-dione]	4730	6.07
O=c1[nH]c(-c2ccc(N3CCC(OCc4c(-c5ccccc5Cl)noc4C4CC4)CC3)cc2)no1 [Example 44, 3-(4-(4-((3-(2-chlorophenyl)-5-cyclopropylisoxazol-4-yl)methoxy)piperidin-1-yl)phenyl)-1,2,4-oxadiazol-5(4H)-one]	371	0.0213
Cn1nc(N2CCC(OCc3c(-c4c(Cl)cccc4Cl)noc3C3CC3)CC2)cc1-c1noc(=O)[nH]1 [Example 70, 3-(3-(4-((5-cyclopropyl-3-(2,6-dichlorophenyl)isoxazol-4-yl)methoxy)piperidin-1-yl)-1-methyl-1H-pyrazol-5-yl)-1,2,4-oxadiazol-5(4H)-one]	> 10000	0.233
O=c1[nH]c(-c2ccc(N3CCC(OCc4c(-c5ccccc5OC(F)(F)F)noc4C4CC4)C(F)(F)C3)cc2)no1 (centres unmarked) [Example 54, 3-(4-(4-((5-cyclopropyl-3-(2-(trifluoromethoxy)phenyl)isoxazol-4-yl)methoxy)-3,3-difluoropiperidin-1-yl)phenyl)-1,2,4-oxadiazol-5(4H)-one]	715	0.0376

Stronger by EC50 [1], values ahead:

EC50 [1] [nM]	EC50 [2] [µM]	SMILES
280	0.0219	Cc1cc(N2CCC(OCc3c(-c4c(Cl)cccc4Cl)noc3C3CC3)CC2)ccc1-c1noc(=O)[nH]1 [Example 11, 3-(4-(4-((5-cyclopropyl-3-(2,6-dichlorophenyl)isoxazol-4-yl)methoxy)piperidin-1-yl)-2-methylphenyl)-1,2,4-oxadiazol-5(4H)-one]
149	0.0117	O=c1[nH]c(-c2ccc(N3CCCC(OCc4c(-c5c(F)cccc5F)noc4C4CC4)CC3)cc2)no1 (centres unmarked) [Example 49, 3-(4-(4-((5-cyclopropyl-3-(2,6-difluorophenyl)isoxazol-4-yl)methoxy)azepan-1-yl)phenyl)-1,2,4-oxadiazol-5(4H)-one]
27.7	0.0031	C[C@@H]1C[C@H](OCc2c(-c3c(Cl)cccc3Cl)noc2C2CC2)CCN1c1ccc(-c2noc(=O)[nH]2)cc1 [Example 23, 3-(4-((2R,4R)-4-((5-cyclopropyl-3-(2,6-dichlorophenyl)isoxazol-4-yl)methoxy)-2-methylpiperidin-1-yl)phenyl)-1,2,4-oxadiazol-5(4H)-one]
94.3	0.009	O=c1[nH]c(-c2ccc(N3CCC(OCc4c(-c5c(Cl)cccc5Cl)noc4C4CC4)C(F)(F)C3)cc2)no1 (centres unmarked) [Example 53, 3-(4-(4-((5-cyclopropyl-3-(2,6-dichlorophenyl)isoxazol-4-yl)methoxy)-3,3-difluoropiperidin-1-yl)phenyl)-1,2,4-oxadiazol-5(4H)-one]
64	0.0085	O=c1[nH]c(-c2ccc(N3CCC(OCc4c(-c5c(Cl)cccc5Cl)noc4C4CC4)CC3)cc2Cl)no1 [Example 14, 3-(2-chloro-4-(4-((5-cyclopropyl-3-(2,6-dichlorophenyl)isoxazol-4-yl)methoxy)piperidin-1-yl)phenyl)-1,2,4-oxadiazol-5(4H)-one]
113	0.0188	O=c1[nH]c(-c2ccc(N3CCC(OCc4c(-c5ccccc5OC(F)(F)F)noc4C4CC4)CC3)cc2)no1 [Example 36, 3-(4-(4-((5-cyclopropyl-3-(2-(trifluoromethoxy)phenyl)isoxazol-4-yl)methoxy)piperidin-1-yl)phenyl)-1,2,4-oxadiazol-5(4H)-one]
271	0.045	C[C@@H]1CN(c2ccc(-c3noc(=O)[nH]3)cc2)CC[C@@H]1OCc1c(-c2c(Cl)cccc2Cl)noc1C1CC1 [Example 31, 3-(4-((3R,4S)-4-((5-cyclopropyl-3-(2,6-dichlorophenyl)isoxazol-4-yl)methoxy)-3-methylpiperidin-1-yl)phenyl)-1,2,4-oxadiazol-5(4H)-one]
82.3	0.0035	O=c1[nH]c(-c2ccc(N3CCC(OCc4c(-c5c(Cl)cccc5Cl)noc4C4CC4)CC3)cc2F)no1 [Example 13, 3-(4-(4-((5-cyclopropyl-3-(2,6-dichlorophenyl)isoxazol-4-yl)methoxy)piperidin-1-yl)-2-fluorophenyl)-1,2,4-oxadiazol-5(4H)-one]

— patent US20240116912A1, “COMPOUNDS AND METHODS FOR MODULATING FXR” (Terns Pharmaceuticals, Inc., priority 2020, published 2024)
